Values quoted from earlier work in article PMC10531095, “Photonics of Some Monomethine Cyanine Dyes in Solutions and in Complexes with Biomolecules” (International Journal of Molecular Sciences, 2023).

Tested on: ssDNA
Parameters: method as in PMID 15249599
Settings: ssDNA vs. dsDNA ref 62; cited from earlier work

Structure (SMILES): CCCN(CCCN(C)C)c1cc(/C=C2/Sc3ccccc3N2C)c2ccccc2[n+]1-c1ccccc1 [SYBR Green I]
- fluorescence increase with ssDNA, times lower than with dsDNA: about 11 times
